Values quoted from earlier work as cited in patent US20240350389A1, “METHOD FOR DYEING KERATINOUS MATERIAL, IN PARTICULAR HUMAN HAIR” (HENKEL AG & CO. KGAA, priority 2021, published 2024).

Conditions: 25° C.

water solubility	SMILES	solubility in water
more than 20 wt %	CCN(Cc1cccc(S(=O)(=O)[O-])c1)c1ccc(C(=C2C=CC(=[N+](CC)Cc3cccc(S(=O)(=O)[O-])c3)C=C2)c2ccccc2S(=O)(=O)[O-])cc1.[Na+].[Na+] [Acid Blue 9]	
	O=S(=O)([O-])c1ccc(N=Nc2c(O)ccc3ccccc23)cc1.[Na+] [Acid Orange 7, sodium salt of 4-[(2-hydroxy-1-naphthyl)azo]benzene sulfonate]	more than 7 g/L
	Nc1cc(S(=O)(=O)[O-])cc2cc(S(=O)(=O)[O-])c(N=Nc3ccccc3)c(O)c12.[Na+].[Na+] [Acid Red 33, disodium salt of 5-amino4-hydroxy-3-(phenylazo)-naphthalene2,7-disulfonate]	2.5 g/L
	O=[N+]([O-])c1cc([N+](=O)[O-])c2ccc(S(=O)(=O)O)cc2c1O.[Na].[Na] [Acid yellow 1, 8-hydroxy-5,7-dinitro-2-naphthalenesulfonic acid disodium]	at least 40 g/L
